This note sets out measurements from patent US20050106563A1 (Genesis Biotech Inc., priority 2003, published 2005).

Where no end group is shown, it is not given here.

Test [1] deals with chicken anti-avian infectious bronchitis virus (IBV) sera. Format: binding.
Test [2] relates to anti-SARS-CoV antibody in human sera. Format: binding.
In test [3] the test system is anti-SARS-CoV sera IgG. Format: binding, human.
In test [4] the test system is IgM specific to SARS-COV N1. Format: binding, human.
The subject of test [5] is cat anti-feline coronavirus sera. Type of test: binding.

For the substance “(APATVCGPKL)8K4K2K-βA (also: octameric MAP on K4K2K lysine core with C-terminal βAla) [GA115]”, in test [1], the “cross reaction with chicken anti-IBV antiserum” value (shortened to “cross reaction”) is reported as “cross reacted only but weakly”.

Turning to “(ASLPYGANKE)8K4K2K-βA (also: octameric MAP on K4K2K lysine core with C-terminal βAla) [GA146]”, in test [2], the “serum binding during treatment versus recovery period (inflammation epitopes)” value is “more strongly during the treatment than during the recovery period”.

In the case of “(ASVVNIQKEI)8K4K2K-βA (also: octameric MAP on K4K2K lysine core with C-terminal βAla) [GA291]”, in test [3], the “time dependency of antibody binding (time dependent epitopes)” value (from here on “time dependency of antibody binding”) was “immediate early (days 1-6)”.

Turning to “(DHIGTRNPNN)8K4K2K-βA (also: octameric MAP on K4K2K lysine core with C-terminal βAla) [GA151]”, in test [3], the “detection of SARS-COV antibody (IgG) in patient #51” value (from here on “detection … (IgG) in patient #51”) was “can be detected” and the “time dependency of antibody binding” value was “immediate early (days 1-6)”. In addition, in test [2], the “Responder (AT>1, positive)/Total samples (R/T)” value was 10/10; the “Responder/Total samples (R/T) value” is on record as 0; the “share of group 2 regarded as probable SARS patients (17 of 23 cases)” value amounted to 74%. For the same substance, the “cross reaction” value in test [1] was “did not cross react”. In addition, the “detection of SARS-COV antibody (IgM) in patient #51” value (shortened to “detection … (IgM) in patient #51”) in test [4] is “can be detected”. Besides, in test [5], the AbT was determined as 2.9 and the “response ratio R/T” value was 1/8.

Take “(FFGMSRIGME)8K4K2K-βA (also: octameric MAP on K4K2K lysine core with C-terminal βAla) [GA158]”: the “serum binding during treatment versus recovery period (inflammation epitopes)” value in test [2] is on record as “more strongly during the treatment than during the recovery period”. Also, the results for the “response ratio R/T” value in test [1] and in test [5] were 3/3 and 8/8, respectively.

On to “(GANKEGIVWV)8K4K2K-βA (also: octameric MAP on K4K2K lysine core with C-terminal βAla) [GA147]”, for which, in test [2], the “serum binding during treatment versus recovery period (inflammation epitopes)” value is “more strongly during the treatment than during the recovery period”. Further, the “response ratio R/T” value in test [1] was 1/3.

In the case of “(GKMKELSPRW)8K4K2K-βA (also: octameric MAP on K4K2K lysine core with C-terminal βAla) [GA142]”, the “serum binding during treatment versus recovery period (inflammation epitopes)” value in test [2] is reported as “more strongly during the treatment than during the recovery period”.

For the substance “(GNCDVVIGII)8K4K2K-βA (also: octameric MAP: 8 copies on K4K2K lysine core with C-terminal βAla) [GA134]”, the “serum binding during treatment versus recovery period (inflammation epitopes)” value in test [2] is reported as “more strongly during the treatment than during the recovery period”.

As for “(GSITAQPVKI)8K4K2K-βA (also: octameric MAP: 8 copies on K4K2K lysine core with C-terminal βAla) [GA186]”, the “cross reaction” value in test [1] is on record as “cross reacted only but weakly”.

Regarding “(GTSWFITQRN)8K4K2K-βA (also: octameric MAP: 8 copies on K4K2K lysine core with C-terminal βAla) [GA129]”, in test [5], the AbT was more than 1 and the “response ratio R/T” value is on record as 5/6.

As to “(HGAIKLDDKD)8K4K2K-βA (also: octameric MAP: 8 copies on K4K2K lysine core with C-terminal βAla) [GA162]”, in test [3], the “time dependency of antibody binding” value is given as “early (days 7-29)”.

Take “(IAQFAPSASA)8K4K2K-βA (also: octameric MAP: 8 copies on K4K2K lysine core with C-terminal βAla) [GA156]”: the “serum binding during treatment versus recovery period (inflammation epitopes)” value in test [2] is given as “more strongly during the treatment than during the recovery period”.

On to “(IGYYRRATRR)8K4K2K-βA (also: octameric MAP: 8 copies on K4K2K lysine core with C-terminal βAla) [GA139]”, for which, in test [2], the “serum binding during treatment versus recovery period (inflammation epitopes)” value was “more strongly during the treatment than during the recovery period”.

Consider “(IITTDNTFVS)8K4K2K-βA (also: octameric MAP: 8 copies on K4K2K lysine core with C-terminal βAla) [GA132]”, for which the “serum binding during treatment versus recovery period (inflammation epitopes)” value in test [2] was “more strongly during the treatment than during the recovery period”.

Regarding “(INTNSGPDDQ)8K4K2K-βA (also: octameric MAP: 8 copies on K4K2K lysine core with C-terminal βAla) [GA137]”, the “serum binding during treatment versus recovery period (inflammation epitopes)” value in test [2] is listed as “more strongly during the treatment than during the recovery period”.

With “(KHWPQIAQFA)8K4K2K-βA (also: octameric MAP: 8 copies on K4K2K lysine core with C-terminal βAla) [GA155]”, in test [2], the “serum binding during treatment versus recovery period (inflammation epitopes)” value is recorded as “more strongly during the treatment than during the recovery period”. Besides, the “response ratio R/T” value in test [1] is 2/3; in test [5], 8/8.

“(KKTDEAQPLP)8K4K2K-βA (also: octameric MAP: 8 copies on K4K2K lysine core with C-terminal βAla) [GA170]”: in test [3], the “detection … (IgG) in patient #51” value is given as “can be detected” and the “time dependency of antibody binding” value is given as “immediate early (days 1-6)”. In test [2], the “Responder (AT>1, positive)/Total samples (R/T)” value is 10/10; the “Responder/Total samples (R/T) value” is 0; the “share of group 2 regarded as probable SARS patients (17 of 23 cases)” value was determined as 74%. In addition, the “cross reaction” value in test [1] was “cross reacted only but weakly”. Further, the “response ratio R/T” value in test [5] is listed as 0/8.

As to “(KYFKNHTSPD)8K4K2K-βA (also: octameric MAP: 8 copies on K4K2K lysine core with C-terminal βAla) [GA287]”, in test [3], the “time dependency of antibody binding” value was “immediate early (days 1-6)”.

For “(LQLPQGTTLP)8K4K2K-βA (also: octameric MAP: 8 copies on K4K2K lysine core with C-terminal βAla) [GA154]”, the “detection … (IgM) in patient #51” value in test [4] is “can be detected”.

In the case of “(LRIPVTAEVGSSYFK)8K4K2K-βA (also: octameric MAP: 8 copies on K4K2K lysine core with C-terminal βAla) [GA6, control polypeptide, WSSV VP28 52-66]”, the “response ratio R/T” value in test [1] is on record as 1/3; in test [5] it was 8/8.

Regarding “(LSPRWYFYYL)8K4K2K-βA (also: octameric MAP: 8 copies on K4K2K lysine core with C-terminal βAla) [GA143]”, the “serum binding during treatment versus recovery period (inflammation epitopes)” value in test [2] was “more strongly during the treatment than during the recovery period”.

Consider “(NAATVLQLPQ)8K4K2K-βA (also: octameric MAP: 8 copies on K4K2K lysine core with C-terminal βAla) [GA153]”, for which, in test [4], the “detection … (IgM) in patient #51” value is “can be detected”.

With “(PPTEPKKDKK)8K4K2K-βA (also: octameric MAP: 8 copies on K4K2K lysine core with C-terminal βAla) [GA168]”, in test [3], the “detection … (IgG) in patient #51” value was “can be detected” and the “time dependency of antibody binding” value is listed as “immediate early (days 1-6)”.

In the case of “(QPTVTLLPAA)8K4K2K-βA (also: octameric MAP: 8 copies on K4K2K lysine core with C-terminal βAla) [GA173]”, in test [1], the “cross reaction” value is “cross reacted only but weakly”.

Take “(QRQKKQPTVT)8K4K2K-βA (also: octameric MAP: 8 copies on K4K2K lysine core with C-terminal βAla) [GA172]”: the entries for the “response ratio R/T” value in test [1] and in test [5] were 3/3 and 8/8, respectively.

For “(RINWVTGGIA)8K4K2K-βA (also: octameric MAP: 8 copies on K4K2K lysine core with C-terminal βAla) [GA179]”, the “serum binding during treatment versus recovery period (inflammation epitopes)” value in test [2] is on record as “more strongly during the treatment than during the recovery period”. Besides, the “response ratio R/T” value in test [1] is 3/3; in test [5], 7/8.

As to “(RVDFCGKGYH)8K4K2K-βA (also: octameric MAP: 8 copies on K4K2K lysine core with C-terminal βAla) [GA117]”, the “serum binding during treatment versus recovery period (inflammation epitopes)” value in test [2] is given as “more strongly during the treatment than during the recovery period”. Besides, the figures for the “response ratio R/T” value in test [1] and in test [5] were 1/3 and 6/8, respectively.

For “(RYLRHGKLRP)8K4K2K-βA (also: octameric MAP: 8 copies on K4K2K lysine core with C-terminal βAla) [GA102]”, in test [2], the “serum binding during treatment versus recovery period (inflammation epitopes)” value was “more strongly during the treatment than during the recovery period”. Also, the “response ratio R/T” value in test [1] was 2/3; in test [5] it was 8/8.

“(YNYKYRYLRH)8K4K2K-βA (also: octameric MAP: 8 copies on K4K2K lysine core with C-terminal βAla) [GA101]”: the “serum binding during treatment versus recovery period (inflammation epitopes)” value in test [2] is “more strongly during the treatment than during the recovery period”. The “response ratio R/T” value in test [1] was 3/3; in test [5], 8/8.

With FVASFRLFAR (SARS Coronavirus) [GA203], in test [3], the “detection … (IgG) in patient #51” value is listed as “can be detected” and the “time dependency of antibody binding” value is reported as “immediate early (days 1-6)”.

With LLACLCKHKK (SARS Coronavirus) [GA231], in test [3], the “detection … (IgG) in patient #51” value is “can be detected” and the “time dependency of antibody binding” value is reported as “immediate early (days 1-6)”. Also, the “serum binding during treatment versus recovery period (inflammation epitopes)” value in test [2] is given as “more strongly during the treatment than during the recovery period”.

For MSRRRLLACL (SARS Coronavirus) [GA230], in test [3], the “detection … (IgG) in patient #51” value was “can be detected” and the “time dependency of antibody binding” value is listed as “immediate early (days 1-6)”.

Regarding NYKYRYLRHGKLRPFERDISNVPFS [GA91], the “response ratio R/T” value in test [5] is 6/8.
